Results taken from PMC6540285, “Evaluation of Protein Kinase Inhibitors with PLK4 Cross-Over Potential in a Pre-Clinical Model of Cancer” (International Journal of Molecular Sciences, 2019).

Tests used:
[1] = biological target: MAPK3 (ERK1) (Homo sapiens, UniProt P27361); assay: SelectScreen kinase profiling, ZLYTE; format: biochemical
[2] = biological target: TEK (TIE2) Y1108F (Homo sapiens, UniProt Q02763, Y1108F); assay: SelectScreen kinase profiling, LanthaScreen binding
[3] = biological target: RET V804M (Homo sapiens, UniProt P07949, V804M); assay: as above
[4] = biological target: BRAF V599E (Homo sapiens, UniProt P15056, V600E); assay: as above
[5] = biological target: NTRK1 (TRKA) (Homo sapiens, UniProt P04629); assay: SelectScreen kinase profiling, ZLYTE; format: biochemical
Sequence of NTRK1 (TRKA) (P04629 33-796): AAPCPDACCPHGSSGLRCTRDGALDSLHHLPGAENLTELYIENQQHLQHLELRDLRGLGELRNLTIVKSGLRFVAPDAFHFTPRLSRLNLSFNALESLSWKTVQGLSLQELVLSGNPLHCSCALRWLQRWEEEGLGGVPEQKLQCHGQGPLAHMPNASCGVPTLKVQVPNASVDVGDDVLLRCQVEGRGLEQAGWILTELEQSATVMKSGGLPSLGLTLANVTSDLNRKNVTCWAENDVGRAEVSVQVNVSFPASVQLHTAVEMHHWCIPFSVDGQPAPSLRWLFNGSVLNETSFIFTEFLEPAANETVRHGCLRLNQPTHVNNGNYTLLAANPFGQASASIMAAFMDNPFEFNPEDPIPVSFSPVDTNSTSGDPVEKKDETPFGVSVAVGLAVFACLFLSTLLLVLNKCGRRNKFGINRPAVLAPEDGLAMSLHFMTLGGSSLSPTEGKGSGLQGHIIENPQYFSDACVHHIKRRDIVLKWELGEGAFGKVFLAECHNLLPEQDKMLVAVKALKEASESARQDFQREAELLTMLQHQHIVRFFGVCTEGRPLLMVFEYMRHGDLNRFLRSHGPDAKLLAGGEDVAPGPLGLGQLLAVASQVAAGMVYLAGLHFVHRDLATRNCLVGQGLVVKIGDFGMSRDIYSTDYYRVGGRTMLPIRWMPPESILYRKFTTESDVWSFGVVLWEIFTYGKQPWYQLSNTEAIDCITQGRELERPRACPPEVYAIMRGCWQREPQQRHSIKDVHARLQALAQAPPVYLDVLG

[6] = biological target: LRRK2 I2020T (Homo sapiens, UniProt Q5S007, I2020T); assay: SelectScreen kinase profiling, Adapta; format: biochemical
[7] = biological target: CLK3 (Homo sapiens, UniProt P49761); assay: SelectScreen kinase profiling, ZLYTE; format: biochemical; settings: CLK3, 10 µM
[8] = biological target: ERN2 (Homo sapiens, UniProt Q76MJ5); assay: SelectScreen kinase profiling, LanthaScreen binding; settings: ERN2, 10 µM
[9] = biological target: MAP4K3 (GLK) (Homo sapiens, UniProt Q8IVH8); assay: as above
[10] = biological target: RET S891A (Homo sapiens, UniProt P07949, S891A); assay: SelectScreen kinase profiling, ZLYTE; format: biochemical
[11] = biological target: PIK3C3 (hVPS34) (Homo sapiens, UniProt Q8NEB9); assay: SelectScreen kinase profiling, Adapta; format: biochemical
[12] = biological target: ACVR1 (ALK2) (Homo sapiens, UniProt Q04771); assay: SelectScreen kinase profiling, LanthaScreen binding
[13] = biological target: HIPK1 (Myak) (Homo sapiens, UniProt Q86Z02); assay: SelectScreen kinase profiling, ZLYTE; format: biochemical
[14] = biological target: PRKCI (PKC iota) (Homo sapiens, UniProt P41743); assay: SelectScreen kinase profiling, ZLYTE; format: biochemical
[15] = test system: D283 cells; format: cell-based; settings: D283, read-out: MTT: IC50 of the proliferation assay
[16] = biological target: EPHA2 (Homo sapiens, UniProt P29317); assay: SelectScreen kinase profiling, ZLYTE; settings: read-out: % Inhibition Avg
[17] = biological target: SPHK1 (Homo sapiens, UniProt Q9NYA1); assay: SelectScreen kinase profiling, Adapta; format: biochemical; settings: SPHK1, 10 µM
[18] = biological target: MAP3K5 (ASK1) (Homo sapiens, UniProt Q99683); assay: SelectScreen kinase profiling, LanthaScreen binding
[19] = biological target: CYP3A4 (Homo sapiens, UniProt P08684); assay: SelectScreen P450 Vivid biochemical assay; settings: 10000nM
Sequence of CYP3A4 (P08684 whole entry): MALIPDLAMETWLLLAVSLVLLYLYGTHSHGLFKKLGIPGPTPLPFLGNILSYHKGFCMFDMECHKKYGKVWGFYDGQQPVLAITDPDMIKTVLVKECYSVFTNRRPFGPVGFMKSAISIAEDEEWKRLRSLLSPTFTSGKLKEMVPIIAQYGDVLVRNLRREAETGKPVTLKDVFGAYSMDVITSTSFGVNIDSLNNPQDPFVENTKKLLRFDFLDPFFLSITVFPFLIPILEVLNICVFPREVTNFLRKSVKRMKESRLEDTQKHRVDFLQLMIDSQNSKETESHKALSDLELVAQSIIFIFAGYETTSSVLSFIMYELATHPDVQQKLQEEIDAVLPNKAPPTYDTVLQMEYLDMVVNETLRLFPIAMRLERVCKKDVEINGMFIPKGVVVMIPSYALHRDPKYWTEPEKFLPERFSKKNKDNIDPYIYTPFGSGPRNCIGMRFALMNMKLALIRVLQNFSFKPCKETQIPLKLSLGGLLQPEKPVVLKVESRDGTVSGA

[20] = biological target: RAF1 (cRAF) Y340D Y341D (Homo sapiens, UniProt P04049, Y340D/Y341D); assay: SelectScreen kinase profiling, LanthaScreen binding
Sequence of RAF1 (cRAF) Y340D Y341D (P04049 whole entry Y340D/Y341D): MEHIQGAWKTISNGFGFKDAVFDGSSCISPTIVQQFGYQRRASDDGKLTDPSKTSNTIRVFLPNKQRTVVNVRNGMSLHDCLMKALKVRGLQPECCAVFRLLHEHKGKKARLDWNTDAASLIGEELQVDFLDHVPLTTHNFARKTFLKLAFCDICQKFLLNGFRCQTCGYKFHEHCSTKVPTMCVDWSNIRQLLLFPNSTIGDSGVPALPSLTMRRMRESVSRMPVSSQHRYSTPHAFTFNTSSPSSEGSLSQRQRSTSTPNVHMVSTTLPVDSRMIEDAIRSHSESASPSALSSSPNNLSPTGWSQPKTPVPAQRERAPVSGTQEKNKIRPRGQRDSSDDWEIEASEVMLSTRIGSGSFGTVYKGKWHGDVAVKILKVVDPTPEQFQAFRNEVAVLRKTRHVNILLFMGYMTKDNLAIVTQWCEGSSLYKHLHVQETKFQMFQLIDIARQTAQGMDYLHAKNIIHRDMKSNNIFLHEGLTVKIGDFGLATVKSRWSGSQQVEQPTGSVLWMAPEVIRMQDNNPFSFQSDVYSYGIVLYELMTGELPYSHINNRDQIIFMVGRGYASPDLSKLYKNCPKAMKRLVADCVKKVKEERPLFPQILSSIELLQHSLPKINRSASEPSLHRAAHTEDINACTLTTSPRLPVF

[21] = biological target: PRKD1 (PKC mu) (Homo sapiens, UniProt Q15139); assay: SelectScreen kinase profiling, ZLYTE; format: biochemical
[22] = biological target: PDGFRB (PDGFR beta) (Homo sapiens, UniProt P09619); assay: SelectScreen kinase profiling, ZLYTE; format: biochemical
[23] = biological target: HIPK4 (Homo sapiens, UniProt Q8NE63); assay: SelectScreen kinase profiling, ZLYTE; format: biochemical; settings: HIPK4, 10 µM
[24] = biological target: MAP3K7/MAP3K7IP1 (TAK1-TAB1) (Homo sapiens, UniProt O43318); assay: SelectScreen kinase profiling, LanthaScreen binding
[25] = biological target: AMPK (A1/B1/G3) (Homo sapiens, UniProt Q13131); assay: as above
[26] = biological target: BRSK1 (SAD1) (Homo sapiens, UniProt Q8TDC3); assay: SelectScreen kinase profiling, ZLYTE; format: biochemical
[27] = biological target: MAPK8 (JNK1) (Homo sapiens, UniProt P45983); assay: SelectScreen kinase profiling, LanthaScreen binding
[28] = biological target: PDK1 (Homo sapiens, UniProt O15530); assay: SelectScreen kinase profiling, ZLYTE; format: biochemical; settings: PDK1, 10 µM
[29] = biological target: FER (Homo sapiens, UniProt P16591); assay: SelectScreen kinase profiling, ZLYTE; format: biochemical
[30] = biological target: MAP2K1 (MEK1) (Homo sapiens, UniProt Q02750); assay: SelectScreen kinase profiling, LanthaScreen binding
[31] = biological target: P450 3A5 (Homo sapiens, UniProt P20815); assay: SelectScreen P450 Vivid biochemical assay; settings: 10000nM
Sequence of P450 3A5 (P20815 whole entry): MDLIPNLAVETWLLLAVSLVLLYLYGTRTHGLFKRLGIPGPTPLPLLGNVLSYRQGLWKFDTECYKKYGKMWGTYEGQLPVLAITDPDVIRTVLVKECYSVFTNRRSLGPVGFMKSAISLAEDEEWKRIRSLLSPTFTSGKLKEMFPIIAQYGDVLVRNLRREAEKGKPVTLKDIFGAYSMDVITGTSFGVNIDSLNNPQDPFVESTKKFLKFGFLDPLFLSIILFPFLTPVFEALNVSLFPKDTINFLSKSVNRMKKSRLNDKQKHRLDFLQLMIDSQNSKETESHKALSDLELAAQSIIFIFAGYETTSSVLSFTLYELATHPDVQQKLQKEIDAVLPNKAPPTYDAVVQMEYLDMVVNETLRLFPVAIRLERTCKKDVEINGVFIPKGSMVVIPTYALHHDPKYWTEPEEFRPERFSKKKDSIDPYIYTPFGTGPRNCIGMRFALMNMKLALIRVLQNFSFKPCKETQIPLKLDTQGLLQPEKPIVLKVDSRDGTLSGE

[32] = biological target: EPHB3 (Homo sapiens, UniProt P54753); assay: SelectScreen kinase profiling, ZLYTE; format: biochemical; settings: EPHB3, 10 µM
Sequence of EPHB3 (P54753 34-998): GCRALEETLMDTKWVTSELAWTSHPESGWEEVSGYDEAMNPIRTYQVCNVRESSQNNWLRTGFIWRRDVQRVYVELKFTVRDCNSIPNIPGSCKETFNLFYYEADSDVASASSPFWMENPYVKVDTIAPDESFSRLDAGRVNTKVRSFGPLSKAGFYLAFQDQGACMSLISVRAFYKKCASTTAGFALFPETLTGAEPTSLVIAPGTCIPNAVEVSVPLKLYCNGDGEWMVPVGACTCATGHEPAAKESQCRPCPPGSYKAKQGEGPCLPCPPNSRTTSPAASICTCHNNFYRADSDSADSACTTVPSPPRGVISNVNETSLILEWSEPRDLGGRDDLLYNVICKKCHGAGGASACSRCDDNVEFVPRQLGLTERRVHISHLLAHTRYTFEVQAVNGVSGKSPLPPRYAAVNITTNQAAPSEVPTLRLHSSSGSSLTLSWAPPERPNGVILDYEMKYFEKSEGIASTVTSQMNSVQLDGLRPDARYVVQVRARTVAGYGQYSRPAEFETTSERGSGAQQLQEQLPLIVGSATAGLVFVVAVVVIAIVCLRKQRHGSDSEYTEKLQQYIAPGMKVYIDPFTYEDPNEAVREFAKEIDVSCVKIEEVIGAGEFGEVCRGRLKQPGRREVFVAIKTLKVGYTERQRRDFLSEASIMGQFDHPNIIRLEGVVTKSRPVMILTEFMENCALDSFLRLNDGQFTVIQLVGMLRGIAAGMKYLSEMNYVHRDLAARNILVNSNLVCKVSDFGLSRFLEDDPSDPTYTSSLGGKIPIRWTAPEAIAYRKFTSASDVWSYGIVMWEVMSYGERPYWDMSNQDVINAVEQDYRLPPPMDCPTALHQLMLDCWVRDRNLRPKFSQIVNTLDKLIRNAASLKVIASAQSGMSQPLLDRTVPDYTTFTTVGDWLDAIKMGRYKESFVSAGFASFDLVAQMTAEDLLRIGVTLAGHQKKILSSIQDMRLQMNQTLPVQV

[33] = biological target: PLK1 (Homo sapiens, UniProt P53350); assay: SelectScreen kinase profiling, ZLYTE; format: biochemical; settings: PLK1, 10 µM
[34] = biological target: PRKCB2 (PKC beta II) (Homo sapiens, UniProt P05771); assay: SelectScreen kinase profiling, ZLYTE; format: biochemical
[35] = biological target: CSNK1E (CK1 epsilon) R178C (Homo sapiens, UniProt P49674, R178C); assay: SelectScreen kinase profiling, ZLYTE; format: biochemical
[36] = biological target: FGFR3 G697C (Homo sapiens, UniProt P22607, G697C); assay: SelectScreen kinase profiling, LanthaScreen binding
[37] = biological target: MERTK (cMER) (Homo sapiens, UniProt Q12866); assay: SelectScreen kinase profiling, ZLYTE; format: biochemical
[38] = biological target: CDK9 (Inactive) (Homo sapiens, UniProt P50750); assay: SelectScreen kinase profiling, LanthaScreen binding
Sequence of CDK9 (Inactive) (P50750 whole entry): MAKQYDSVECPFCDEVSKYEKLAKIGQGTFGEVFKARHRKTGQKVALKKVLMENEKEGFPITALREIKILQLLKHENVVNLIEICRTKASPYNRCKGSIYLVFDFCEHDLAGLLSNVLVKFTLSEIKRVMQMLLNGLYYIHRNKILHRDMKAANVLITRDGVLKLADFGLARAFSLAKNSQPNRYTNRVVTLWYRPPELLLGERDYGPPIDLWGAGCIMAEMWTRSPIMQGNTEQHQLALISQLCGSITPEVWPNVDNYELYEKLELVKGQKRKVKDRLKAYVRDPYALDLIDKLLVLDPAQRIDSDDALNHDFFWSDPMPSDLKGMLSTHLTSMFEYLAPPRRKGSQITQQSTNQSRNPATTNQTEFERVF

Sequence of TEK (TIE2) Y1108F (Q02763 23-1124 Y1108F): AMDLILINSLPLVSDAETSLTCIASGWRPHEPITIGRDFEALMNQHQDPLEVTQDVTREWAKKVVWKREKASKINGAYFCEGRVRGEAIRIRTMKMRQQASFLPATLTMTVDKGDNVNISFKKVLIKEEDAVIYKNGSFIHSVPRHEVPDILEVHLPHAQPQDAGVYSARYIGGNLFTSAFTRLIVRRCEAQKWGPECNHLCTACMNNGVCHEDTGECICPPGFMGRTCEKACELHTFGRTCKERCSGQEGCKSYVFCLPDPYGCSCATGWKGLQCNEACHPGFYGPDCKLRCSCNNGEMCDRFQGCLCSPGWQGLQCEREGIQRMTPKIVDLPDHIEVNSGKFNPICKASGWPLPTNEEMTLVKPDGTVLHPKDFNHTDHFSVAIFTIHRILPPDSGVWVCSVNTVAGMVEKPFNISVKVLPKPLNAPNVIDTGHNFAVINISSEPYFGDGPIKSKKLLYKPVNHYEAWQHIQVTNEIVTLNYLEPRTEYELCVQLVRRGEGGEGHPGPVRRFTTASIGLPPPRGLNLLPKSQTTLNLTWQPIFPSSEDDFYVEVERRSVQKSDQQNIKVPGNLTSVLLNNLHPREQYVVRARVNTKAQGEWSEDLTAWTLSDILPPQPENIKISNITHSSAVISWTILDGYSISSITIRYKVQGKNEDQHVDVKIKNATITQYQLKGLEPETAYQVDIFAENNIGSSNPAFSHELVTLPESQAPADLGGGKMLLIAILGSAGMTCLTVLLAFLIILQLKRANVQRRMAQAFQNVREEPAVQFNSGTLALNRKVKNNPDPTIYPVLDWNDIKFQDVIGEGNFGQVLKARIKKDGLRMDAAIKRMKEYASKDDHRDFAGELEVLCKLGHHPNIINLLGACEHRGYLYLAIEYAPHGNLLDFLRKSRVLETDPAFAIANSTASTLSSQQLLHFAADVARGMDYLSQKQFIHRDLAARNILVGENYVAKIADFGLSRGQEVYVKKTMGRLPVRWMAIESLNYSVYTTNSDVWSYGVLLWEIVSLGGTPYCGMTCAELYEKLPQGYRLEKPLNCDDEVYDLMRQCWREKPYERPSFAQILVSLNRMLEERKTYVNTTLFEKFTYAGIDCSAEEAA

## O=C(c1ccc(/C=C/c2n[nH]c3ccccc23)cc1)N1CCNCC1 [KW-2449]
[1]
  inhibition at 10 µM: 41%
[2]
  inhibition at 10 µM: 72%
[3]
  inhibition at 10 µM: -5%
[4]
  inhibition at 10 µM: 6%
[5]
  inhibition at 10 µM: 98%
[6]
  inhibition at 10 µM: 100%
[7]
  inhibition at 10 µM: 66%
[8]
  inhibition at 10 µM: 74%
[9]
  inhibition at 10 µM: 72%
[10]
  inhibition at 10 µM: 97%
[11]
  inhibition at 10 µM: -3%
[12]
  inhibition at 10 µM: 94%
[13]
  inhibition at 10 µM: 70%
[14]
  inhibition at 10 µM: 7%
[15]
  IC50: 8.05 µM
[16]
  inhibition at 10 µM: 98%
[17]
  inhibition at 10 µM: 17%
[18]
  inhibition at 10 µM: 63%
[19]; substrate BOMCC
  % Inhibition 3A4 BOMCC: 63%
[19]; substrate DBOMF
  % Inhibition 3A4 DBOMF: 46%
[20]
  inhibition at 10 µM: 0%
[21]
  inhibition at 10 µM: 97%
[22]
  inhibition at 10 µM: 76%
[23]
  inhibition at 10 µM: 85%
[24]
  inhibition at 10 µM: 26%
[25]
  inhibition at 10 µM: 71%
[26]
  inhibition at 10 µM: 99%
[27]
  inhibition at 10 µM: 81%
[28]
  inhibition at 10 µM: 77%
[29]
  inhibition at 10 µM: 98%
[30]
  inhibition at 10 µM: 54%
[31]; substrate BOMCC
  % Inhibition 3A5 BOMCC: 14%
[31]; substrate DBOMF
  % Inhibition 3A5 DBOMF: 10%
[32]
  inhibition at 10 µM: 21%
[33]
  inhibition at 10 µM: 16%
[34]
  inhibition at 10 µM: 71%
[35]
  inhibition at 10 µM: 71%
[36]
  inhibition at 10 µM: 78%
[37]
  inhibition at 10 µM: 93%
[38]
  inhibition at 10 µM: 2%
